Paper PMC9572541, “Design, Synthesis and Biological Evaluation of Novel and Potent Protein Arginine Methyltransferases 5 Inhibitors for Cancer Therapy” (Molecules, 2022)

Assays:
[1] = test system: MDA-MB-468 cells; assay: Anti-proliferation CellTiter-Glo assay, MDA-MB-468; assay type: cell-based; settings: Homo sapiens
Source text: MV-4-11 and MDA-MB-468 cell lines were used to evaluate the anti-proliferative activities of the selected target compounds (CellTiter-Glo assay), and AML-12 hepatocytes were selected to evaluate the toxicity of the compounds.
MV-4-11 and MDA-MB-468 cell line were derived from Cell Resources Center of Shanghai Academy of life sciences (Shanghai, China). AML-12 cell line was brough from Nanjing Lixing Biotechnology Co. Ltd. (Nanjing, China). MDA-MB-468 cell line was maintained in Dulbecco’s Modified Eagle Medium (DMEM, KeyGEN Bio) that contained 10% FBS (Biochanel, China), MV-4-11 cell line was maintained in Iscove’s Modified Dulbecco Medium containing; 10% FBS (Biochannel, China), AML-12 cell line was maintained in DMEM/F-12 (1:1) (KeyGEN, China; 1% ITS Liquid Media Supplement (Sigma, America), dexamethasone 40 ng/mL (Sigma, USA) and 10% FBS (Biochannel, China). All cells were grown in a humidified incubator containing 5% carbon dioxide at 37 ℃. All compounds were dispersed in dimethyl sulfoxide (Sigma), the concentration of the reserve solution was 10 mmol/L and the solution was stored in a refrigerator at −20 ℃. SDMA (# 13222S), β- Tubulin (#2146S) and horseradish peroxidase (HRP)-linked secondary antibodies anti-rabbit or anti-mouse IgG were purchased from Cell Signaling Technology (CST), and the anti-PRMT5 (ab109451) antibody was purchased from ABCAM.
The antiproliferative activities of compounds in vitro were measured by CellTiter-Glo (CTG) assay (Promega, America). In linear/log-phase growth, cultured MV-4-11 cells were split to with seeding density of 2 × 10^5 cells/mL in 1–20 mL of media, depending on the yield required at the end of the growth period. At the conclusion of each treatment period, cells were harvested by centrifugation (4 min, 1000 rpm), and cell pellets were rinsed twice with PBS before being research further processing. Afterwards, cells were plated in 96-well plates with a density of 500 cells/well in […] media. After six hours incubation, compounds treatment was performed. Half of the culture medium was moved and re-plated with fresh media with fresh compound after 6 days. On the 12th day, Cell Titer-Glo Luminescent Cell Viability assays (Promega, USA) were used to determine the viable cell number, and luminescence was recorded using the Envision Multilabel Plate Readers (PerkinElmer). The concentration dependence curves were determined at each time point using GraphPad Prism 8.0 software.

[2] = test system: sDMA; assay: Western blot of sDMA in MV-4-11 xenograft tumors; assay type: in vivo, BALB/c nude mice; settings: 10 mg/kg, 28 days
Description: Subsequently, we investigated the effects of compound 20 on the expression of the PRMT5 substrate sDMA in vivo (Figure 8). Similarly, the expression of sDMA was decreased after the treatment of compound 20, which was in line with its antitumor activity in vivo.
Tumor tissue was grinded by a cryo-grinder before being lysed with an RIPA buffer, protease inhibitors (PMSF, MCE), and phosphatase cocktails II (MCE). The mixture was centrifuged for 15 min (12,000 rpm). The following steps were the same as with cells.
(A) Western blot analysis of sDMA as indicated in MV-4-11 xenograft tumors treated with the indicated compounds for 28 days. (B) The relative strength of sDMA signal on the Western blots was measured by densitometry. The data are shown as the mean ± SD of three independent experiments. * p < 0.05 vs. control.

[3] = test system: MV-4-11 xenograft; assay: MV-4-11 xenograft mouse model; assay type: in vivo, BALB/c nude mice; settings: 28 days
Description: Based on the excellent enzymatic and anti-proliferative activities of compound 20 in vitro, we then evaluated antitumor activities in vivo in an MV-4-11 xenograft mouse model.
Male BALB/c nude mice (6–8 weeks old) were purchased from Hangzhou Medical College. All animals were housed in a specific pathogen-free facility. MV-4-11 cells (5 × 10^6) suspended in 0.2 mL of PBS were inoculated subcutaneously on the right flank of each BALB/c nude mouse. Mice were divided randomly (5 mice for each group) into two treatment groups and a control group when the size of the tumors reached 150 mm^3. […] The tumor volume and body weight were measured every 2 days. The tumor volume was determined with Vernier calipers and calculated as follows: tumor volume = a × b^2/2, where a and b stand for the longest and shortest diameters measured by the vernier caliper, respectively. All animal experiments have been approved by Pharmaceutical Experiment Center of China Pharmaceutical University.
(A) The resulting tumors excised from the animals after treatment. […] (C) The nude mouse body weight was measured every 2 days. (D) The tumor volumes of the nude mice were measured and calculated once every 2 days.

[4] = target: T1, PRMT5 (Homo sapiens, UniProt O14744); assay: PRMT5 enzymatic activity inhibition assay (radioactive methylation, 3H-SAM to H4R3 peptide); assay type: biochemical
T1 construct: The final concentrations of PRMT5 enzyme: 2.5 nm/L
T1 sequence (O14744 whole entry): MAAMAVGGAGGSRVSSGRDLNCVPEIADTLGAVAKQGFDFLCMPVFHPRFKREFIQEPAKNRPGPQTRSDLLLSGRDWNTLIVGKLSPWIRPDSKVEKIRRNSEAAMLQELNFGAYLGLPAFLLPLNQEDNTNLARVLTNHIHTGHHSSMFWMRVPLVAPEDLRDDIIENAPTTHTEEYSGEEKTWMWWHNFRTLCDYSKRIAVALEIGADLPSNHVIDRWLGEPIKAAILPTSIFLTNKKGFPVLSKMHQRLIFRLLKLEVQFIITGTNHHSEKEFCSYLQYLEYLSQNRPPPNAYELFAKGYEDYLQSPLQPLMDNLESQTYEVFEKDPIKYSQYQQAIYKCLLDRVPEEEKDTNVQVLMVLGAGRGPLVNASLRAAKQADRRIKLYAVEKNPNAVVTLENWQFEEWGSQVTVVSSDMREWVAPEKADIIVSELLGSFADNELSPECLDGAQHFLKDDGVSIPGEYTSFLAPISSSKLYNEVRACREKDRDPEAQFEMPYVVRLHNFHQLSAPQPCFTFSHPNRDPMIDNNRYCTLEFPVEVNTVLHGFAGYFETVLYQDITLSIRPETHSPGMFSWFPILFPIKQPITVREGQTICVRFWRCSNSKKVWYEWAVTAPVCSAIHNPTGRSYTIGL
T1 sequence (Q9BQA1 whole entry partner): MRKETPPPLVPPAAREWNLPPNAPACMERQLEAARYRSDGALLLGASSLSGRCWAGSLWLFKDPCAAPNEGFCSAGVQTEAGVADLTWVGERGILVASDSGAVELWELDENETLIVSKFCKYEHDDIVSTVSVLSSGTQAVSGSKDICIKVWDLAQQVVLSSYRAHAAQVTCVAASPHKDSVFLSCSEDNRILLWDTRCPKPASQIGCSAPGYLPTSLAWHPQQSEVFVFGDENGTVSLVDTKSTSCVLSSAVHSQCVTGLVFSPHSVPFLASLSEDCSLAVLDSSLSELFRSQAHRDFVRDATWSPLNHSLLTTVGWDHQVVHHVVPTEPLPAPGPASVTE
Description: The PRMT5 enzymatic activity assay was conducted by Chempartner Life science. The final concentrations of PRMT5 enzyme: 2.5 nm/L; ^3H-SAM: 0.3 μM/L; histone peptide (H4R3S1ac): 0.3 μM/L. The protocol of radioactive methylation assay was as follows: (1) Prepare 1× assay buffer (modified Tris Buffer). (2) Transfer compounds to assay plate using Echo in 100% DMSO. DMSO’s final fraction is 1%. (3) Prepare enzyme and ^3H-SAM Mix solution in 1× assay buffer. (4) Prepare substrate (peptide sequence Ac-[…]-K(Biotin)) solution in 1× assay buffer. (5) Transfer 15 μL of enzyme and ^3H-SAM solution to assay plate. (6) Incubate at room temperature for 60 min. (7) Add 10 μL of substrate solution to each well to start the reaction, and for low control transfer 10 μL of 1× assay buffer. (8) Incubate at room temperature for 120 min. (9) Add cold SAM in 1× assay buffer to make the stop mix. (10) Stop reaction with addition of 5 µL per well of stop solution. (11) Transfer 25 µL of volume per well to Flash plate from assay plate. (12) Incubate for 1 h minimum at room temperature.
(13) Read plate on Micro beta. (14) Data process—get the data in Excel to obtain inhibition values using Equation (1).Inhibitory rate% = (Max-Signal)/ (Max-Min) × 100(1)
Fit the data in XL-Fit to obtain IC50 values using Equation (2): Y = Bottom + (Top-Bottom)/(1 + (IC50/X) […]) Y is% inhibition and X is compound concentration(2)

O=C(NC[C@H](O)CN1CCc2ccccc2C1)c1ccc2c(c1)c1c(n2CC2COC2)CCCC1 [Compound 20, (S)-N-(3-(3,4-dihydroisoquinolin-2(1H)-yl)-2-hydroxypropyl)-9-(oxetan-3-ylmethyl)-2,3,4,9-tetrahydro-1H-carbazole-6-carboxamide]
GI50 [1]: 9.9 ± 6.8 nM | expression of sDMA in vivo [2]: decreased | body weight ([3]; 10 mg/kg BID): no significant weight fluctuations | tolerability / mortality ([3]; 10 mg/kg BID): well-tolerated with no mortality | TGI ([3]; 10 mg/kg, twice daily (BID)): 47.6% | IC50 [4]: 4.2 ± 1.3 nM | inhibition at 0.1 µM ([4]; 100 nM compound, read-out: Inhibition Rate% @100 nM): 83 ± 12%
